Measurements taken from patent US7074789B2, “Kinase inhibitors” (Amgen Inc., priority 1999, dated 2006).

Experiments:
Format in all cases: biochemical
Lck = molecular target: T1, Lck (Homo sapiens, UniProt P06239); test: Kinase inhibition assay (33P transfer), Lck; conditions: Table 3; read-out: Lck-1
T1 construct: Kinases are expressed as either kinase domains or full length constructs; made in house
Outline: (§1)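 Steps: express kinase as GST or polyHistidine fusion in E. coli or High Five cells; optionally co-express or mix with regulatory polypeptides; incubate with 33P-ATP and plate-attached poly(Glu,Tyr) 4:1 or poly(Arg,Ser) 3:1; wash with 0.5% phosphoric acid; count by liquid scintillation.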

Src = molecular target: T2, Src (Homo sapiens, UniProt P12931); test: Kinase inhibition assay (33P transfer), Src; conditions: Table 6, Src-1 kinase inhibition class
T2 construct: Kinases are expressed as either kinase domains or full length constructs; made in house
T2 sequence (P12931 whole entry, species assumed, the tested form may be a part): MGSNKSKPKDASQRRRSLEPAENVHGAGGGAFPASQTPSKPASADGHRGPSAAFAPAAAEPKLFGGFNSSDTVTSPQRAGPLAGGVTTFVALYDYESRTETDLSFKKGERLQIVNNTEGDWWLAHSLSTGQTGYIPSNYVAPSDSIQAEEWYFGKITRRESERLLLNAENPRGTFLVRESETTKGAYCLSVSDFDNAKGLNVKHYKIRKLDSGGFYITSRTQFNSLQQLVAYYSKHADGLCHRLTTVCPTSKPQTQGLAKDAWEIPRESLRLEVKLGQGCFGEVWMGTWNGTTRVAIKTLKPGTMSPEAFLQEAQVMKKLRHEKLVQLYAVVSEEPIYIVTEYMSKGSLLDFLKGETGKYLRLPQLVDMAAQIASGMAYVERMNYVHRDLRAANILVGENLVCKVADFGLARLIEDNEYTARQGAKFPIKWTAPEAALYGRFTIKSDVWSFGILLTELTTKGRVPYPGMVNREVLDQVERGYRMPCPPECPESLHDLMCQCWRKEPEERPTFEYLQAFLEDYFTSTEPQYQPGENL
Outline: (§2)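 Each enzyme, purified to near homogeneity by affinity chromatography, was incubated with ATP carrying 33P and a substrate polymer fixed to the plate. Unbound label was removed with dilute phosphoric acid (0.5%) before adding scintillant and counting. Potency is given as the compound level cutting label uptake by 50%.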

Fyn = molecular target: T3, Fyn (Homo sapiens, UniProt P06241); test: Kinase inhibition assay (33P transfer), Fyn; conditions: read-out: Fyn-1
T3 construct: Kinases are expressed as either kinase domains or full length constructs; made in house
T3 sequence (P06241 whole entry, species assumed, the tested form may be a part): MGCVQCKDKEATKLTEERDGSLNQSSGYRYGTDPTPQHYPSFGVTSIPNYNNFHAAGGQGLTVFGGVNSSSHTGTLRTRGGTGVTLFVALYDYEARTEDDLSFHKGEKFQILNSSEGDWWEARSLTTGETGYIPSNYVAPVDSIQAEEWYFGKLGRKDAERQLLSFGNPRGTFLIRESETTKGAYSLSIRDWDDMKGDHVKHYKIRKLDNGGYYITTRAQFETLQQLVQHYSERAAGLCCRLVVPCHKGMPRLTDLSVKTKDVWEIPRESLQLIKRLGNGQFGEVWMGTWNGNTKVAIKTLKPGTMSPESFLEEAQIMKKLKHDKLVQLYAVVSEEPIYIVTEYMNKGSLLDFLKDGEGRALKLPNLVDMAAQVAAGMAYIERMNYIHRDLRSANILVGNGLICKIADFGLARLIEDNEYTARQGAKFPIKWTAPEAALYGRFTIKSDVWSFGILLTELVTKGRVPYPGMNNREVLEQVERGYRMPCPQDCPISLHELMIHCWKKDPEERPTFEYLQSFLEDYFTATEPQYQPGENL
Outline: as §2

Itk = molecular target: T4, Itk (Homo sapiens, UniProt Q08881); test: Kinase inhibition assay (33P transfer), Itk; conditions: Table 3; read-out: Itk-1
T4 construct: Kinases are expressed as either kinase domains or full length constructs; made in house
T4 sequence (Q08881 1-620): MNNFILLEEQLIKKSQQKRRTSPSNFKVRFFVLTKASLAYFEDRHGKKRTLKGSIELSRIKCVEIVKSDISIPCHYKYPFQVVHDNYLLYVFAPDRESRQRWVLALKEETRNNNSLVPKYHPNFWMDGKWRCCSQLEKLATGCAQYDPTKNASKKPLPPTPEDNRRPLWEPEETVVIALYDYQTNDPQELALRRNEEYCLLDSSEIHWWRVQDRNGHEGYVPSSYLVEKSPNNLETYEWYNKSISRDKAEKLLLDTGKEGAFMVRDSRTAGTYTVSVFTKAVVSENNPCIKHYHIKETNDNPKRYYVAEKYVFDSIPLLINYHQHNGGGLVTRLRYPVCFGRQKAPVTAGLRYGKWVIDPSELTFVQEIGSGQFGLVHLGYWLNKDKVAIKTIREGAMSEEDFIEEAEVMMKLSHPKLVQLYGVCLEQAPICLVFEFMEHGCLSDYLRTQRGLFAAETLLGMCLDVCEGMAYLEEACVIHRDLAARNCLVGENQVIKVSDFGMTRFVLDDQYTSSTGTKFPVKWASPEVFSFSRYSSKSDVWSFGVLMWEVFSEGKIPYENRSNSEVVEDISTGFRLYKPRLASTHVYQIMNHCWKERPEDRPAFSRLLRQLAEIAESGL
Outline: as §2

EGFR = molecular target: T5, EGFR (Homo sapiens, UniProt P00533); test: Kinase inhibition assay (33P transfer), EGFR; conditions: Table 2, kinase inhibition class; read-out: EGFR-1
T5 construct: Kinases are expressed as either kinase domains or full length constructs; made in house
T5 sequence (P00533 25-1210, species assumed): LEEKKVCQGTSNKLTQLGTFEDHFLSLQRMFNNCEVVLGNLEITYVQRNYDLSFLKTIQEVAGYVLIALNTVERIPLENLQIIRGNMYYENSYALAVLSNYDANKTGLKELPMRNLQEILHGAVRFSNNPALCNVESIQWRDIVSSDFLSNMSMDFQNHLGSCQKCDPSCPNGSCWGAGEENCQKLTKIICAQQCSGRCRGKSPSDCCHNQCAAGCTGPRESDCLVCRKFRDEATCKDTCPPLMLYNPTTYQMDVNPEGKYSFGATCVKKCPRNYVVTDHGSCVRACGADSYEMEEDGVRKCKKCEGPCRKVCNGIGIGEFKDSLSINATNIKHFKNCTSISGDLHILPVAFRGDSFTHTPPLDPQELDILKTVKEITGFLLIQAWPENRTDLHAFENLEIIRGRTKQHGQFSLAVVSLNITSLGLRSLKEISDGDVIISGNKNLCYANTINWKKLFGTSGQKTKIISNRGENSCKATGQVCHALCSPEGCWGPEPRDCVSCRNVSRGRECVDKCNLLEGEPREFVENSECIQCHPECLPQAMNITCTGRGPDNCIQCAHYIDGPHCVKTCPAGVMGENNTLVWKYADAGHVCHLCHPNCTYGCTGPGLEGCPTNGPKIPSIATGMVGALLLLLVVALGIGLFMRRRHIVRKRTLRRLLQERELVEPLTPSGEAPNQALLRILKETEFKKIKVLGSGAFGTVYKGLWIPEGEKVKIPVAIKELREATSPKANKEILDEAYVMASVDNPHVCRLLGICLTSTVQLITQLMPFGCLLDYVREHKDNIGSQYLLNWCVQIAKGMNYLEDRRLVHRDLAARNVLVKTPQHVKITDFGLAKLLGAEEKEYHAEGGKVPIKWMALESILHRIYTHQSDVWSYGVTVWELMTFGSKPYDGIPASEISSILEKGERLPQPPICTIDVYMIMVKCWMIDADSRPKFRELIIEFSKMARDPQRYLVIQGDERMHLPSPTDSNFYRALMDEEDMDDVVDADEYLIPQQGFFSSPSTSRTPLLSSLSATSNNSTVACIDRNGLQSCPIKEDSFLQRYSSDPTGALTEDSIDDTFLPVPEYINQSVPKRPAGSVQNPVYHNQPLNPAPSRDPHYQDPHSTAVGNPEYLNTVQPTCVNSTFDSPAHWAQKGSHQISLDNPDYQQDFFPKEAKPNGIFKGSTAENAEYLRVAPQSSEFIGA
Outline: as §2

ErbB2 = molecular target: T6, ErbB2 (Homo sapiens, UniProt P04626); test: Kinase inhibition assay (33P transfer), ErbB2; conditions: read-out: ErbB2-2
T6 construct: Kinases are expressed as either kinase domains or full length constructs; made in house
Outline: as §2

Flt-1 = molecular target: T7, Flt-1 (Homo sapiens, UniProt P17948); test: Kinase inhibition assay (33P transfer), Flt-1
T7 construct: Kinases are expressed as either kinase domains or full length constructs; made in house
T7 sequence (P17948 27-1338, species assumed): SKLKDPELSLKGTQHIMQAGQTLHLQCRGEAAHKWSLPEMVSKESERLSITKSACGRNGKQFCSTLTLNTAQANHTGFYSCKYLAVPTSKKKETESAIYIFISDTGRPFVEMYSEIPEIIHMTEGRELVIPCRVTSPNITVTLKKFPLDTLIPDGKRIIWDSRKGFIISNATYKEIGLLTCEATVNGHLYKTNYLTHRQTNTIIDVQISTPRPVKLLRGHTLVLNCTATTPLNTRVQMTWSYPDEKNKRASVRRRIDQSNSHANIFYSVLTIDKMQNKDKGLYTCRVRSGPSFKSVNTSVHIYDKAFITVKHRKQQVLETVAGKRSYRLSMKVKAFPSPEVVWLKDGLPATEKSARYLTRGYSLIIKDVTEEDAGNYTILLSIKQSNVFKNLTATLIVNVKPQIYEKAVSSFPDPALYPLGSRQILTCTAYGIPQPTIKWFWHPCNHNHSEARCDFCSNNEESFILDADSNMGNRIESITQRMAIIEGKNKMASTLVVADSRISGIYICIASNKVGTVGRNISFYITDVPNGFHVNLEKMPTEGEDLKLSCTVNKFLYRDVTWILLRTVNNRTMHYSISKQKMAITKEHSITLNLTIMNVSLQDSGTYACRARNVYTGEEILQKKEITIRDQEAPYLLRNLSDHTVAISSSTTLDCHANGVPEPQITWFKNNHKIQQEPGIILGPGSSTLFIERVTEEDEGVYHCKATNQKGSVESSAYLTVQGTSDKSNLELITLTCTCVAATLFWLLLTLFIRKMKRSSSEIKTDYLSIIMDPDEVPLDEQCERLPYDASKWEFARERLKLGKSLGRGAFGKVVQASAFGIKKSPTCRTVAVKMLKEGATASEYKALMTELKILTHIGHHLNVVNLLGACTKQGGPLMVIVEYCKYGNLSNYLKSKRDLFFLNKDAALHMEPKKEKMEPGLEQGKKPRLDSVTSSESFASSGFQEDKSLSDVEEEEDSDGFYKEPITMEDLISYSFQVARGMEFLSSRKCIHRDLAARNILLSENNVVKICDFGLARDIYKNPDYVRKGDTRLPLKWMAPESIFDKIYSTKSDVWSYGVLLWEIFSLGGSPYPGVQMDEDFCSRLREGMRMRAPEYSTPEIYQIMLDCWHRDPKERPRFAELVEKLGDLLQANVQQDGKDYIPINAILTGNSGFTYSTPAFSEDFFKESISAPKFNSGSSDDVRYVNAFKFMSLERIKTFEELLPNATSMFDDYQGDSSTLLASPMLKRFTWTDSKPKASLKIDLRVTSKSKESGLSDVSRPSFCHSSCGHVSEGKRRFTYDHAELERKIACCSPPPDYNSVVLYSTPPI
Outline: as §2

AKT = molecular target: T8, AKT (Homo sapiens, UniProt Q9Y243); test: Kinase inhibition assay (33P transfer), AKT; conditions: Table 2, kinase inhibition class; read-out: AKT3-1
T8 construct: Kinases are expressed as either kinase domains or full length constructs; made in house
Outline: as §1

IGFR-1 = molecular target: T9, IGFR-1 (Homo sapiens, UniProt P08069); test: Kinase inhibition assay (33P transfer), IGFR-1; conditions: Table 2, kinase inhibition class
T9 construct: Kinases are expressed as either kinase domains or full length constructs; made in house
T9 sequence (P08069 31-1367): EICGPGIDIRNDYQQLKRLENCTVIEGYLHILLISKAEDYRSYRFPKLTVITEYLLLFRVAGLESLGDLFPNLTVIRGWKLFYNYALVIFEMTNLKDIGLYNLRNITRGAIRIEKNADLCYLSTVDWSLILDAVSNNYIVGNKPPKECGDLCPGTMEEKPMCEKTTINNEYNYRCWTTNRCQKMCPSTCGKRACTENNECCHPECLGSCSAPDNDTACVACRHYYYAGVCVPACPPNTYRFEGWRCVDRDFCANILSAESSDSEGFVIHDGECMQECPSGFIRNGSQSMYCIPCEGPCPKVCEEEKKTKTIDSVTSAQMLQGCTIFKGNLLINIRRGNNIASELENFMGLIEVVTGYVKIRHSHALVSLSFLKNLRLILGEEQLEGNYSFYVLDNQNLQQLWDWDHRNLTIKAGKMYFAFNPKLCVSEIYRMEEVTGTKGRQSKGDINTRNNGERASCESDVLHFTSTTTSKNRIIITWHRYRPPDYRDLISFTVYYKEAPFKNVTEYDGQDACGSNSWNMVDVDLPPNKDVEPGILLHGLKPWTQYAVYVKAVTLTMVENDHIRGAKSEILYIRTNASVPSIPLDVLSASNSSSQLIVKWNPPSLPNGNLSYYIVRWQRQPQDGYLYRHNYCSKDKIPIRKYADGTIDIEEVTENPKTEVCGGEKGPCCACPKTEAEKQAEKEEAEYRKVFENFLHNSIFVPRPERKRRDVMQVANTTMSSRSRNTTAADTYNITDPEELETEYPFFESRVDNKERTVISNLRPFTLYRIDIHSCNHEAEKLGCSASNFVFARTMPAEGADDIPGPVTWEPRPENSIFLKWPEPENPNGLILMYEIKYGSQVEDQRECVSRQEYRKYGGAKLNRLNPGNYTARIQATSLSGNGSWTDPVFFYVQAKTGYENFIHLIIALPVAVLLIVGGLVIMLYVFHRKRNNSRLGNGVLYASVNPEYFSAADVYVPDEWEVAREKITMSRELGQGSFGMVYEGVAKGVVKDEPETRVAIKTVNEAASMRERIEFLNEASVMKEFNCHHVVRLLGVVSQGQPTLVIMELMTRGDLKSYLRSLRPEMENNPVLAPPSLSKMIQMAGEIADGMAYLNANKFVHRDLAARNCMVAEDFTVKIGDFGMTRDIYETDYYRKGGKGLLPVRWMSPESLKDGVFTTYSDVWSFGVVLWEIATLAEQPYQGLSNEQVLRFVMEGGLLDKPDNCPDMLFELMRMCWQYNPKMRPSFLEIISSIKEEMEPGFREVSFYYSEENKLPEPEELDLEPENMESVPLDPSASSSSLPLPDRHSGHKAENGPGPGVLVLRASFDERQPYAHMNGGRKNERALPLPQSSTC

PDGFRB = molecular target: T10, PDGFRB (Homo sapiens, UniProt P09619); test: Kinase inhibition assay (33P transfer), PDGFRB; conditions: read-out: PDGFRB-1
T10 construct: Kinases are expressed as either kinase domains or full length constructs; made in house

ErbB4 = molecular target: T11, ErbB4 (Homo sapiens, UniProt Q15303); test: Kinase inhibition assay (33P transfer), ErbB4; conditions: read-out: ErbB4-1
T11 construct: Kinases are expressed as either kinase domains or full length constructs; made in house

| Compound | IC50 (Lck) [µM] | IC50 (Src) [µM] | IC50 (Fyn) [µM] | IC50 (Itk) [µM] | IC50 (EGFR) [µM] | IC50 (ErbB2) [µM] | IC50 (Flt-1) [µM] | IC50 (AKT) [µM] | IC50 (IGFR-1) [µM] | IC50 (PDGFRB) [µM] | IC50 (ErbB4) [µM] |
| --- | --- | --- | --- | --- | --- | --- | --- | --- | --- | --- | --- |
| COc1ccc(Nc2ncnc(Nc3cc(OC)c(OC)c(OC)c3)n2)cc1O [Compound 931] | 1 to 6.01 | < 1 | < 1 | > 11.3 | < 1 | 1 to 6.01 | < 1 | > 11.3 | 1 to 6.01 | < 1 | 1 to 6.01 |
| COc1ccc(Nc2ncnc(-n3c(N)nc4ccccc43)n2)cc1OC [Compound 285] | 1.1 to 6.6 | > 12.4 | > 12.4 | > 12.4 | > 12.4 | > 12.4 | > 12.4 | > 12.4 | < 1.1 | > 12.4 | > 12.4 |
| COc1cc(Nc2ncnc(Nc3cccc(F)c3)n2)cc(OC)c1OC [Compound 304] | < 1.08 | < 1.08 | < 1.08 | 9.42 to 12.1 | < 1.08 | 1.08 to 6.46 | 1.08 to 6.46 | > 12.1 | < 1.08 | < 1.08 | < 1.08 |
| COCCOc1ccc(Nc2ncnc(Nc3ccc4[nH]ccc4c3)n2)cc1OCCOC [Compound 321] | 7.77 to 9.99 | 0.888 to 5.33 | > 9.99 | > 9.99 | < 0.888 | 0.888 to 5.33 | > 9.99 | > 9.99 | 5.33 to 7.77 | 0.888 to 5.33 | > 9.99 |
| COc1cc(Nc2ncnc(Nc3cccc(Cl)c3)n2)cc(OC)c1OC [Compound 135] | 1.03 to 6.19 | < 1.03 | < 1.03 | 6.19 to 9.02 | < 1.03 | < 1.03 | > 11.6 | > 11.6 | < 1.03 | < 1.03 | 6.19 to 9.02 |
| Cc1cccc(Nc2ncnc(Nc3ccc4[nH]ncc4c3)n2)c1 [Compound 120] | 11 to 14.2 | 1.26 to 7.56 | 1.26 to 7.56 | 7.56 to 11 | < 1.26 | 1.26 to 7.56 | 1.26 to 7.56 | 7.56 to 11 | < 1.26 | < 1.26 | 1.26 to 7.56 |
| COc1cc(Nc2ncnc(Nc3ccc(OCc4ccccc4)cc3)n2)cc(OC)c1 [Compound 156] | 8.15 to 10.5 | > 10.5 | 5.59 to 8.15 | > 10.5 | < 0.931 | 0.931 to 5.59 | 5.59 to 8.15 | > 10.5 | > 10.5 | 8.15 to 10.5 | 5.59 to 8.15 |
| Cc1cccc(Nc2ncnc(Nc3ccc4[nH]ccc4c3)n2)c1 [Compound 110] | 1.26 to 7.59 | < 1.26 | < 1.26 | 7.59 to 11.1 | < 1.26 | < 1.26 | < 1.26 | > 14.2 | 1.26 to 7.59 | < 1.26 | 1.26 to 7.59 |
| COc1cc(Nc2ncnc(Nc3ccc(C)cc3)n2)cc(OC)c1OC [Compound 930] | 1.09 to 6.53 | < 1.09 | < 1.09 | > 12.2 | < 1.09 | 1.09 to 6.53 | 6.53 to 9.53 | > 12.2 | 1.09 to 6.53 | < 1.09 | 1.09 to 6.53 |
| COc1cc(Nc2ncnc(Nc3ccc4c(ccn4Cc4ccccc4)c3)n2)cc(OC)c1OC [Compound 178] | 0.829 to 4.97 | 0.829 to 4.97 | 0.829 to 4.97 | > 9.33 | < 0.829 | < 0.829 | 7.25 to 9.33 | 7.25 to 9.33 | 0.829 to 4.97 | 4.97 to 7.25 | > 9.33 |
| COc1cc(Nc2ncnc(-n3ccc4ccccc43)n2)cc(OC)c1OC [Compound 185] | 6.36 to 9.27 | > 11.9 | > 11.9 | > 11.9 | > 11.9 | > 11.9 | 1.06 to 6.36 | > 11.9 | 1.06 to 6.36 | < 1.06 | > 11.9 |
| COc1cc(Nc2ncnc(N3CCCC4CCCCC43)n2)cc(OC)c1OC (centres unmarked) [Compound 314] | < 1 | 1 to 6.01 | 1 to 6.01 | 1 to 6.01 | < 1 |  | 1 to 6.01 | > 11.3 | > 11.3 | 1 to 6.01 | 1 to 6.01 |
